Where “and” joins values, the source holds several entries; their conditions need not be identical. Equal entries are not always repeated.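 These data come from cells grown in 96-well plates and exposed to compound for 48 hours at five concentrations. At the GI50, growth is halved. TGI: concentration producing complete growth inhibition.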
Columns and labels:
Test in all cases: NCI-60 cell line screen, 48 h
CCRF-CEM leukemia = system: CCRF-CEM leukemia
HL-60(TB) leukemia = system: HL-60(TB) leukemia
HOP-92 NSCLC = system: HOP-92 NSCLC
HT29 colon = system: HT29 colon
K-562 leukemia = system: K-562 leukemia
LOX IMVI melanoma = system: LOX IMVI melanoma
OVCAR-5 ovarian = system: OVCAR-5 ovarian
SF-268 CNS = system: SF-268 CNS
SNB-75 CNS = system: SNB-75 CNS
SK-MEL-5 melanoma = system: SK-MEL-5 melanoma

Structure (SMILES)	TGI (CCRF-CEM leukemia)	TGI (HL-60(TB) leukemia)	TGI (HOP-92 NSCLC)	TGI (HT29 colon)	TGI (K-562 leukemia)	TGI (LOX IMVI melanoma) [µM]	TGI (OVCAR-5 ovarian) [µM]	TGI (SF-268 CNS) [µM]	TGI (SNB-75 CNS) [µM]	GI50 (CCRF-CEM leukemia) [µM]	GI50 (HL-60(TB) leukemia) [µM]	GI50 (HOP-92 NSCLC) [µM]	GI50 (HT29 colon) [µM]	GI50 (K-562 leukemia) [µM]	GI50 (LOX IMVI melanoma)	GI50 (OVCAR-5 ovarian)	GI50 (SF-268 CNS)	GI50 (SK-MEL-5 melanoma)	TGI (SK-MEL-5 melanoma)	GI50 (SNB-75 CNS)
COC(=O)C1Cc2c([nH]c3ccccc23)[C@H](CC(C)C)N1 (some centres undefined)	> 100 µM	> 100 µM	> 100 µM	> 100 µM	> 100 µM	> 100	> 100	> 100	> 100	–	–	–	–	–	–	–	–	–	–	–
COc1ccc(C(=O)/C=C/c2ccc(Cl)cc2)cc1S(N)(=O)=O	9.35 µM	8.77 µM	5.78 µM	10.5 µM	> 100 µM	2.65	13.8	11.9	–	3.35	3.08	2.14	3.27	0.568	1.28 µM	3.08 µM	3.13 µM	5.69 µM	18 µM	–
COc1ccc([C@H]2c3cc(OC)c(OC)cc3C=C(C=O)C2CO)cc1OC (some centres undefined)	> 100 µM	> 100 µM	> 100 µM	–	> 100 µM	> 100	> 100	> 100	–	19	3.65	> 100	–	6.03	7.44 µM	43 µM	4.74 µM	3.51 µM	> 100 µM	–
CC(C)(O)Cn1c(=O)c(Oc2ccc(F)cc2F)cc2cnc(NC3CCOCC3)nc21	> 25 µM	> 25 µM	> 25 µM	> 25 µM	> 25 µM	> 25	> 25	> 25	> 25	> 25	> 25	7.79	> 25	> 25	> 25 µM	> 25 µM	> 25 µM	> 25 µM	> 25 µM	> 22.3 µM
Cc1cc(O)c2c(c1)C[C@@H](O)C1=C2C(=O)c2c(O)ccc(OC3CC(O)C(OC4CC(OC5CCC(OC6CC(O)C(OC7CC(OC8CCC(O)C(C)O8)C(O)C(C)O7)C(C)O6)C(C)O5)C(O)C(C)O4)C(C)O3)c2C1=O (some centres undefined)	0.255 µM and 0.266 µM	0.134 µM and 0.291 µM	0.316 µM and 0.684 µM	0.318 µM and 2.3 µM	0.267 µM and 0.457 µM	–	–	–	–	0.0386	0.112	0.3	0.847	0.144	0.295 µM and 0.23 µM	1.88 µM and 0.666 µM	0.295 µM and 0.467 µM	1.33 µM and 1.2 µM	–	1.48 µM and 1.99 µM
O=C1CCC/C=C\C[C@H]2C=C(Cl)C(=O)/C2=C/C[C@H](CCCCC(F)(F)F)OC(=O)CCC/C=C\C[C@H]2C=C(Cl)C(=O)/C2=C/C[C@H](CCCCC(F)(F)F)O1	0.884 µM	3.6 µM	0.754 µM	0.807 µM	7.5 µM	0.268	2.08	1.38	6.24	0.178	0.362	0.199	0.241	0.184	0.128 µM	0.34 µM	0.241 µM	0.412 µM	1.37 µM	1.23 µM
CC(C)c1ccc2c(c1)CCC1C(C)(C)[C@@H](O)CC[C@]21C (some centres undefined)	> 100 µM	37.6 µM	52.8 µM	30 µM	> 100 µM	28.8	41.7	> 100	55.4	–	–	–	–	–	–	–	–	–	32.1 µM	–
Cc1cc(Cl)n2c(nc3ccccc32)c1C#N	–	1.09 µM	1.62 µM	–	61.3 µM	1.35	10.8	11.4	8.53	0.0485	0.241	0.494	–	0.256	0.26 µM	0.83 µM	0.46 µM	0.573 µM	3.45 µM	1.33 µM
O=C(CC(O)(c1ccccc1)c1ccc(Cl)cc1)NC(=O)c1ccccc1O (centres undefined)	43.2 µM	25 µM	6.59 µM	53 µM	> 100 µM	23.3	8.95	> 100	40.8	–	–	–	–	–	–	–	–	–	19.1 µM	–
c1ccc([CH2][Sn]([CH2]c2ccccc2)([S]c2cccc3cccnc23)[S]c2cccc3cccnc23)cc1	0.686 µM	0.687 µM	–	0.39 µM	–	0.442	–	2.3	2.02	0.102	0.273	–	0.175	–	0.215 µM	–	0.489 µM	0.299 µM	1.18 µM	0.749 µM
Cc1ncc(C(=O)Nc2ccc(CN3CCN(C)CC3)c(C(F)(F)F)c2)cc1C#Cc1c(N)ncc2ccc(C#N)cc12	16.5 µM	> 50 µM	1.25 µM	7.74 µM	5.3 µM	0.791	10.9	9.7	8.93	1.41	9.24	0.075	0.0293	0.005	0.092 µM	1.25 µM	1.4 µM	1.1 µM	8.59 µM	2.38 µM
CCCCN(CCCC)C(=Nc1ccccc1)N(CCCC)CCCC	24.4 µM	4.09 µM	7.06 µM	> 100 µM	10.4 µM	13.6	27.8	46.8	37.7	–	–	–	–	–	–	–	–	–	–	–
O=C(c1ccccc1)c1nnn(Cc2cccc(Cl)c2)c1C(=O)c1ccccc1	> 100 µM	> 100 µM	> 100 µM	> 100 µM	> 100 µM	> 100	> 100	> 100	> 100	–	–	–	–	–	–	–	–	–	> 100 µM	–
Cc1ccc(S(=O)(=O)NCCCN(CCCNS(=O)(=O)c2ccc(C)cc2)S(=O)(=O)c2ccc(C)cc2)cc1	> 100 µM	> 100 µM	–	–	> 100 µM	> 100	–	> 100	> 100	–	–	–	–	–	–	–	–	–	–	–
COc1ccc(C(=O)O/N=C2\CCCC\C2=C/c2ccccc2)cc1	> 100 µM	> 100 µM	–	> 100 µM	–	> 100	–	> 100	62	–	–	–	–	–	–	–	–	–	> 100 µM	–
Cc1c2c(n3c(nc4ccccc43)c1C#N)SCC2	> 10 µM	> 10 µM	> 10 µM	> 10 µM	> 10 µM	> 10	> 10	> 10	> 10	–	–	–	–	–	–	–	–	–	> 10 µM	–
C=C1C(=O)OC2C1C(OC(=O)/C(=C/C)COC(C)=O)CC1(CO1)C1C(OC(=O)/C(=C/C)CO)C=C(C)C21 (centres undefined)	2.13 µM	2.34 µM	–	7.48 µM	10 µM	11.9	25.9	9.35	15.6	–	–	–	–	–	–	–	–	–	5.05 µM	–

Structure (SMILES)	TGI (CCRF-CEM leukemia)	TGI (HL-60(TB) leukemia)	TGI (HOP-92 NSCLC)	TGI (HT29 colon)	TGI (K-562 leukemia)	TGI (LOX IMVI melanoma) [µM]	TGI (OVCAR-5 ovarian) [µM]	TGI (SF-268 CNS) [µM]	TGI (SNB-75 CNS) [µM]	GI50 (CCRF-CEM leukemia) [µM]	GI50 (HL-60(TB) leukemia) [µM]	GI50 (HOP-92 NSCLC) [µM]	GI50 (HT29 colon) [µM]	GI50 (K-562 leukemia) [µM]	GI50 (LOX IMVI melanoma)	GI50 (OVCAR-5 ovarian)	GI50 (SF-268 CNS)	GI50 (SK-MEL-5 melanoma)	TGI (SK-MEL-5 melanoma)	GI50 (SNB-75 CNS)
O=C(Nc1nc2ncn(CCOC(=O)c3ccccc3)c2c(=O)[nH]1)c1ccccc1	> 100 µM	> 24.6 µM	> 75.6 µM	> 37.9 µM	> 100 µM	> 100	> 100	> 100	> 71.7	–	–	–	–	–	–	–	–	–	> 100 µM	–
COc1ccc(CCNc2nc3ccccc3c3[nH]c4ccccc4c23)cc1OC	13.8 µM	3.88 µM	8 µM	6.32 µM	10.2 µM	5.38	11.6	20.6	28.4	1.87	1.65	2.43	2.04	2.45	2.28 µM	3.48 µM	4.77 µM	1.8 µM	3.21 µM	14.3 µM
COC1CC(OC2OC(CO)C(O)C(O)C2O)/C(=C\C#N)C(O)C1OC (centres undefined)	> 100 µM	> 100 µM	> 100 µM	> 100 µM	–	> 100	> 100	> 100	–	–	–	–	–	–	–	–	–	–	> 100 µM	–
COc1c(O)c2ccccc2c2cc(O)ccc12	73.8 µM	27 µM	24.3 µM	47.4 µM	21.9 µM	7.53	21.7	28.8	22.7	–	–	–	–	–	–	–	–	–	5.59 µM	–
CC/C(=C(\c1ccccc1)c1ccc(OCCN(C)C)cc1)c1ccccc1	–	–	–	–	–	–	–	–	–	2.33	1.78	1.43	1.17	1.84	1.49 µM	6.76 µM	–	0.852 µM	–	–
CCC12C=CCN3CC[C@]4(C(=C(C(=O)OC)[C@@H]1Nc1ncnc5c1ncn5C1OC(COC(C)=O)C(OC(C)=O)C1OC(C)=O)Nc1ccccc14)C32 (some centres undefined)	6.81 µM	7.39 µM	9.02 µM	4.88 µM	17 µM	3.25	8.94	5.11	7.03	–	–	–	–	–	–	–	–	–	8.47 µM	–
CC(=O)O[C@@H]1C=CC(=O)C2(CC(=O)O[C@@H]2/C=C(\C)CCC=C(C)C)C1 (some centres undefined)	0.543 µM	0.557 µM	3.94 µM	73.9 µM	–	0.743	1.08	2.31	2.83	0.163	0.184	1.59	0.529	0.449	0.229 µM	0.267 µM	1.05 µM	1.31 µM	3.1 µM	1.33 µM
C#Cc1cccc(NC(=O)Nc2ccccc2NC(=O)CCl)c1	> 82.5 µM	> 82.5 µM	44 µM	> 82.5 µM	> 82.5 µM	25.6	41.9	43.2	19.8	20.8	25.2	14.8	27.6	22.8	13.3 µM	17.4 µM	15.2 µM	14.2 µM	26.9 µM	9.11 µM
CCN(CC)CCn1c(=N)n(CC(O)c2ccc(Cl)c(Cl)c2)c2ccccc21 (centres undefined)	–	22.2 µM	13.1 µM	12.1 µM	6.36 µM	20.3	22.8	25.3	23.8	–	5.12	2.73	3.3	2.33	6.14 µM	10.7 µM	11.9 µM	1.73 µM	3.15 µM	10.6 µM
CCc1ccc(Cc2ccc(CC)c(NC(=O)C(=O)Cc3nc4ccccc4nc3C)c2CC)c(CC)c1NC(=O)C(=O)Cc1nc2ccccc2nc1C	> 100 µM	> 100 µM	43 µM	–	> 100 µM	> 100	> 100	> 100	44.4	–	–	–	–	–	–	–	–	–	> 100 µM	–
COCCNC(=O)C1C(=O)N(CCOC)C(=O)/C1=N/N (centres undefined)	> 100 µM	> 100 µM	> 100 µM	> 100 µM	> 100 µM	> 100	–	> 100	> 100	–	–	–	–	–	–	–	–	–	–	–
CCOC(=O)C(C(=O)c1ccccc1-c1ccccc1C(=O)O)=P(c1ccccc1)(c1ccccc1)c1ccccc1	77.1 µM	57.5 µM	–	> 100 µM	> 100 µM	40.8	–	> 100	47.8	–	–	–	–	–	–	–	–	–	29.6 µM	–
CN1CCC(O)C(CNC23CC4CC(CC(C4)C2)C3)C1 (centres undefined)	> 100 µM	> 100 µM	> 100 µM	> 100 µM	> 100 µM	> 100	> 100	> 100	–	–	–	–	–	–	–	–	–	–	> 100 µM	–
CCc1nc(N)nc(N)c1-c1ccc(Cl)cc1	–	> 100 µM	> 100 µM	> 100 µM	> 26.5 µM	> 100	> 100	> 100	> 100	–	6.67	17.4	–	–	2.82 µM	31.7 µM	6.89 µM	4.14 µM	> 100 µM and 19.8 µM	> 100 µM
NC(=O)C/C=C/CC(N)=O	> 100 µM	> 100 µM	> 100 µM	> 100 µM	–	> 100	> 100	> 100	> 100	–	–	–	–	–	–	–	–	–	> 100 µM	–
COc1ccc(NC(=O)c2ccc(NC3=C(Cl)C(=O)N(Cc4ccccc4)C3=O)cc2)cc1	–	–	13.8 µM	90.3 µM	64.8 µM	8.43	28.8	> 100	34.6	–	2.16	3.63	11.5	4.02	3.06 µM	14.8 µM	31.5 µM	10 µM	32.1 µM	12.9 µM

— PubChem BioAssay (NCI)
